According to US6551605B2, “Diesters or polyesters of naphthalene dicarboxylic acid as solubilizer/stabilizer for retinoids” (Haarmann & Reimer, priority 2001, dated 2003):
≈ marks a conversion by molar mass, not a printed value.

What was measured:
[1] = test system: skin; settings: topical, 0.1% versus 0.025%; cited from earlier work
[2] = test system: skin; settings: topical, 0.1% versus 0.025%; cited from earlier work; remark: listed apart in the source
[3] = Solubility of retinoids in diethylhexyl 2,6-naphthalate (HallBrite TQ); assay type: physicochemical; settings: organic solvent or mixture, read-out: solubility in diethylhexyl diester of 2,6-naphthalene-dicarboxylic acid
Experimental: Retinoids are lipophilic. […] For example, isotretinoin is soluble in the diethylhexyl diester of 2,6-naphthalene-dicarboxylic acid (diethylhexyl 2,6-naphthalate, HallBrite TQ, C. P. Hall) at approximately 6.7 mg/ml, and tretinoin is soluble in the same diester at approximately 5.6 mg/ml.

[4] = cited from earlier work
[5] = cited from earlier work; remark: listed apart in the source

| SMILES | therapeutic effectiveness [1] | degree of irritation [2] | solubility [3] [µg/mL] | solubility in chloroform ([4]; chloroform) | solubility in dimethyl sulfoxide ([4]; dimethyl sulfoxide) [µg/mL] | solubility in ether ([4]; ether) | solubility in methylene chloride ([4]; methylene chloride) | solubility in water ([4]; water) | stability of aqueous solutions ([5]; aqueous solutions) | stability of solutions in pure organic solvents ([5]; pure organic solvents, stored in the dark) |
| --- | --- | --- | --- | --- | --- | --- | --- | --- | --- | --- |
| CC1=C(/C=C/C(C)=C/C=C/C(C)=C\C(=O)O)C(C)(C)CCC1 [isotretinoin, 13-cis-retinoic acid] | more effective | more irritating | ~6700 (≈ 22.3 mM) | – | – | – | – | – | – | – |
| CC1=C(/C=C/C(C)=C/C=C/C(C)=C/C(=O)O)C(C)(C)CCC1 [tretinoin, all-trans-retinoic acid] | – | – | ~5600 (≈ 18.6 mM) | slightly soluble | 40000 (≈ 133 mM) | sparingly soluble | soluble | practically insoluble | deteriorate quickly | stable |
